Assay results as given in ChEMBL document CHEMBL1201862, “PubChem BioAssay data set” (2004).
Calls of active or inactive are those of the source.

Experiments:
[1] = biological target: T1, Replicative DNA helicase DnaB (Mycobacterium tuberculosis, UniProt P9WMR3); assay: DnaB intein splicing inhibitors, dose response, biochemical, cell-free fluorescence (AID 449749); type: functional
T1 sequence (P9WMR3 whole entry): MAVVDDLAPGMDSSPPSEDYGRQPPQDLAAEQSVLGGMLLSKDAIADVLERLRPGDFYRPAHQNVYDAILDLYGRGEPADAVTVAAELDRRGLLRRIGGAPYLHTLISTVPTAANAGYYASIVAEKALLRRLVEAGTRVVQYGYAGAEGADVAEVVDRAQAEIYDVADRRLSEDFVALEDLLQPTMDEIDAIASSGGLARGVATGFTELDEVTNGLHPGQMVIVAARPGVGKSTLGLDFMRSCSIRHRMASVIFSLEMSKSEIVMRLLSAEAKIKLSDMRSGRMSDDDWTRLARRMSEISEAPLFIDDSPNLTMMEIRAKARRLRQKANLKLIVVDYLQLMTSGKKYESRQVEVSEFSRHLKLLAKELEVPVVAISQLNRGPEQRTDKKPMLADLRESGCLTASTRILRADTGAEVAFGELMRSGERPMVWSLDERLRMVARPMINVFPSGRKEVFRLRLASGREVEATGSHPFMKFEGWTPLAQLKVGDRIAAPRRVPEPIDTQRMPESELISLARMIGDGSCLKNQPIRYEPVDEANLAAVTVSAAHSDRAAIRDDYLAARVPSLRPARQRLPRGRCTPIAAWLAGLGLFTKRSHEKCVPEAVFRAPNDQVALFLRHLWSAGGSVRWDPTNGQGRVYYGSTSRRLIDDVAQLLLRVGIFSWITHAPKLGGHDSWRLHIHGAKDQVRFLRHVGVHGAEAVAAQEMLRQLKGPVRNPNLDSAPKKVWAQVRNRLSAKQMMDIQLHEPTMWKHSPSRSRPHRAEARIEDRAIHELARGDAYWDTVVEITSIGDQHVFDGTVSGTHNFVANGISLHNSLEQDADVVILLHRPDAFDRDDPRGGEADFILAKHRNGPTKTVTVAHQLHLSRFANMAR

Insulin-degrading enzyme [2] = biological target: T2, Insulin-degrading enzyme (Homo sapiens, UniProt P14735); assay: activators of recombinant IDE enzyme, dose response, counter-screen for IDE activator project, biochemical, fluorescence polarization (AID 588681)
T2 sequence (P14735 whole entry): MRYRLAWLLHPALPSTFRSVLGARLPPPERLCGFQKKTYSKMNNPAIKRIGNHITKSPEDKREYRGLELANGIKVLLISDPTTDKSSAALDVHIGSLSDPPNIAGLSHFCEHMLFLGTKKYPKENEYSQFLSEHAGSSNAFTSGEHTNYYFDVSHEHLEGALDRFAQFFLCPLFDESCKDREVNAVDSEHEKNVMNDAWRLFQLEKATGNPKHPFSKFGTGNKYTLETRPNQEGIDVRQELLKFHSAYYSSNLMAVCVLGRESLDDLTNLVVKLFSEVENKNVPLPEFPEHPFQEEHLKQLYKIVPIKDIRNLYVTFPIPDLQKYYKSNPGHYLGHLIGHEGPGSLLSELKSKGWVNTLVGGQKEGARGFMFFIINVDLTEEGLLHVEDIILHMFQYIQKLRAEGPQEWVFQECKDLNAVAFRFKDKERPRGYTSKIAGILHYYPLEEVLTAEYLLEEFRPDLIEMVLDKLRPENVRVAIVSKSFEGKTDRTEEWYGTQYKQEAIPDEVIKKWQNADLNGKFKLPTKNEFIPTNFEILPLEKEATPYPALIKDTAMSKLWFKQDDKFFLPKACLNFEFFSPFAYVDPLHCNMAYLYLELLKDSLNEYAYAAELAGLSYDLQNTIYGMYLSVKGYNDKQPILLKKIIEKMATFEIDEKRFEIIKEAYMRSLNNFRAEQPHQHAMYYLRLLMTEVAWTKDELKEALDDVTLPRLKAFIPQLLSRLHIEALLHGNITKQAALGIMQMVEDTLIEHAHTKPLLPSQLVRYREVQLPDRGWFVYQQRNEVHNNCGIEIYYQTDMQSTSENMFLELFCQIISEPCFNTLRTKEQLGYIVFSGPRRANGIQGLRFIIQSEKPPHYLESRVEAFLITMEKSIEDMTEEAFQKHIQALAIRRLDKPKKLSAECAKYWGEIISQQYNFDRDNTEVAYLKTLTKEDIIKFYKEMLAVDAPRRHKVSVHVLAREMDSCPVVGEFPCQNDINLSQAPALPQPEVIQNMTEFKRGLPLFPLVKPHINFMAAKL

Protein RecA = biological target: T3, Protein RecA (Mycobacterium tuberculosis, UniProt P9WHJ3); assay: Fluorescence Cell-Free Homogeneous Dose Retest to Identify Inhibitors of RecA-Intein Splicing Activity. [Related pubchem assays (depositor defined):AID2097, AID2223, AID489010, AID492950]; type: functional
T3 sequence (P9WHJ3 whole entry): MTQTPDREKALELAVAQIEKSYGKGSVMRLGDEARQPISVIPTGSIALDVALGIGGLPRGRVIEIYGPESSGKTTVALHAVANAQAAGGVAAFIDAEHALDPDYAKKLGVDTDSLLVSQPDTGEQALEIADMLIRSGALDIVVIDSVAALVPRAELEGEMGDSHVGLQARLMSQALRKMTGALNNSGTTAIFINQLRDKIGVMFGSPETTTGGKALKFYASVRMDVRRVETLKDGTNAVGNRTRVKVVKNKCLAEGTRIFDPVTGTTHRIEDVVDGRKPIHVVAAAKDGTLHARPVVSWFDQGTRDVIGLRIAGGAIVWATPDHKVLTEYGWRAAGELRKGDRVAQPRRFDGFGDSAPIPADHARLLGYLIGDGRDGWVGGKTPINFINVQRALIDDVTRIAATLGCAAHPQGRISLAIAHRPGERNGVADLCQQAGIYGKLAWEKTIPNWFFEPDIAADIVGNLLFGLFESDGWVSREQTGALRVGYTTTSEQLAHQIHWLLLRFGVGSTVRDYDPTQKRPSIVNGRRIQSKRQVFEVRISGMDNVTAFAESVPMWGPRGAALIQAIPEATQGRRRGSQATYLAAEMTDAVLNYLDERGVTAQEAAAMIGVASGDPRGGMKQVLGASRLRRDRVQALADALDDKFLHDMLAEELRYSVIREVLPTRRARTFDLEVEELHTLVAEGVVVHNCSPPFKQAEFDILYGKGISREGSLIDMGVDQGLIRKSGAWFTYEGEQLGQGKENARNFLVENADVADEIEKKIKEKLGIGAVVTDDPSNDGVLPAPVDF

Insulin-degrading enzyme [3] = biological target: T2, Insulin-degrading enzyme; assay: activators of endogenous IDE in HEK cells, dose response, cell-based, fluorescence polarization (AID 588439); type: functional
Paired box protein Pax-8 = Paired box protein Pax-8 (Homo sapiens, UniProt Q06710); assay: inhibitors of PAX8-driven TPO luciferase reporter, dose response, RMG-I cells, cherry-pick (AID 687027); type: functional, cell-based;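 further: luciferase reporter driven by Pax8 target thyroperoxidase promoter measured by SteadyGlo luminescence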
[4] = inhibitors of PGC1a acetylation in cells, dose response, cell-based, cherry-picked samples (AID 720514); type: functional;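 further: potency may reflect raised or lowered acetylation signal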
[5] = HepG2 cell cytotoxicity, dose response, cytotoxicity control, plate reader, cherry-pick, antagonist series (AID 743416); type: functional, cell-based
[6] = LGR2 antagonists, dose response, cell-based, HEK293, CRE-luciferase reporter, cherry pick, set 2 (AID 743343); type: functional;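 further: transfected cells were stimulated with diluted bursicon conditioned medium after compound addition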

Chain of Paired box protein Pax-8 (Q06710 whole entry): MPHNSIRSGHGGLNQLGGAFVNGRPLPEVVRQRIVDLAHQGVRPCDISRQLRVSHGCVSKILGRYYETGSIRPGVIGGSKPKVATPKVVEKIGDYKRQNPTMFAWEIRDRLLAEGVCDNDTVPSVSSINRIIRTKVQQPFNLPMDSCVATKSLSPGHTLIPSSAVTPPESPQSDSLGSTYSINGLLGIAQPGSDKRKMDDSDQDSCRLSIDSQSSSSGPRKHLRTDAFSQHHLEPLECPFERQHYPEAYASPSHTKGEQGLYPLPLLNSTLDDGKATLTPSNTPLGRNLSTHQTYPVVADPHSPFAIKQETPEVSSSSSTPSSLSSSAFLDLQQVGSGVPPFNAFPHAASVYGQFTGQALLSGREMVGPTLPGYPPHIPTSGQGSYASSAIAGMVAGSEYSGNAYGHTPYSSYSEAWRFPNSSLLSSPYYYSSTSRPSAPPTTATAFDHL

For `Cl.N=c1n(Cc2ccccc2)c2ccccc2n1CC(O)COc1ccc(Cl)cc1Cl` (stereo not drawn), the AC50 [1] was 2.51 µM (active), the EC50 (Insulin-degrading enzyme [2]) was 40.1 µM (inactive) and the EC50 (Protein RecA) was > 380 µM (inconclusive). For the same compound, the EC50 (Insulin-degrading enzyme [3]) was 11.2 µM (inactive), the AC50 (Paired box protein Pax-8) was 17.2 µM (active) and the AC50 [4] was 6.94 µM (active). The AC50 [5] was 6.16 µM (active) and the AC50 [6] was 23.1 µM (active).
